Laboratory results taken from patent US11149040B2, “Fused triazole agonists of the APJ receptor” (AMGEN INC., priority 2017, dated 2021).

molecular target: human APJ receptor (Homo sapiens (Human), UniProt P35414); test: [35S]GTPγS binding assay on membranes from CHO cells stably expressing human APJ receptor; format: biochemical; conditions: read-out: Activity hAPJ SPA EC50 IP
Experimental: [^35S]GTPγS Binding The human APJ receptor was cloned by polymerase chain reaction and the gene encoding the receptor was subcloned in pFLAG-CMV™-3 expression vector (Sigma, Saint Louis, Mo. USA) in-house at Amgen. A GTPγS binding assay was performed on membranes prepared from CHO cells stably expressing human APJ receptor. The optimum experimental conditions for the concentrations of GDP, MgCl2, and NaCl in the assay buffer were initially determined. […] Incubation was at RT for 90 min and the microplate was read using a ViewLux™ ultra HTS Microplate Imager (PerkinElmer, Inc.). All the results presented are means of several independent experiments and analyzed by non-linear regression methods using the commercially available program Prism (GraphPad, San Diego, Calif.) providing the EC50 values detailed in Table 13.

Sequence of human APJ receptor (P35414 whole entry): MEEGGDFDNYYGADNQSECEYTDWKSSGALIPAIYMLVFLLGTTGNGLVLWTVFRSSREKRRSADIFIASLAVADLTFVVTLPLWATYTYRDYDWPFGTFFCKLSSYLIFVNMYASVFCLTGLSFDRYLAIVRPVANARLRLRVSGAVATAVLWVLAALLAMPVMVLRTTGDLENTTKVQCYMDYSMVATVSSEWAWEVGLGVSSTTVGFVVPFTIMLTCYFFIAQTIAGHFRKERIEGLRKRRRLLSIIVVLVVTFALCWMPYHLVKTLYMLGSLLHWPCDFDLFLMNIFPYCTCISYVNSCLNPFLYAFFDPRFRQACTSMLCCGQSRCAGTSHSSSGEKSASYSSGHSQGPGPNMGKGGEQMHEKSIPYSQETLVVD

Row | SMILES | EC50 [nM]
1 | COC[C@@H]1COc2ccc(OC)nc2-c2nnc(NS(=O)(=O)[C@@H](C)[C@@H](OC(C)C)c3ncc(C)cn3)n21 (single isomer, unassigned) [Example 14.0, (1S,2S)-N-((5R)-10-methoxy-5-(methoxymethyl)-5,6-dihydropyrido[2,3-1][1,2,4]triazolo[4,3-d][1,4]oxazepin-3-yl)-1-(5-methyl-2-pyrimidinyl)-1-(2-propanyloxy)-2-propanesulfonamide or (1S,2S)-N-((5S)-10-methoxy-5-(methoxymethyl)-5,6-dihydropyrido[2,3-1][1,2,4]triazolo[4,3-d][1,4]oxazepin-3-yl)-1-(5-methyl-2-pyrimidinyl)-1-(2-propanyloxy)-2-propanesulfonamide] | 400
2 | COC[C@@H]1COc2ccc(OC)nc2-c2nnc(NS(=O)(=O)[C@@H](C)[C@@H](OC(C)C)c3ncc(C)cn3)n21 (single isomer, unassigned) [Example 15.0, (1S,2S)-N-((5R)-10-methoxy-5-(methoxymethyl)-5,6-dihydropyrido[2,3-f][1,2,4]triazolo[4,3-d][1,4]oxazepin-3-yl)-1-(5-methyl-2-pyrimidinyl)-1-(2-propanyloxy)-2-propanesulfonamide or (1S,2S)-N-((5S)-10-methoxy-5-(methoxymethyl)-5,6-dihydropyrido[2,3-f][1,2,4]triazolo[4,3-d][1,4]oxazepin-3-yl)-1-(5-methyl-2-pyrimidinyl)-1-(2-propanyloxy)-2-propanesulfonamide] | 37
3 | COc1ccc2c(n1)-c1nnc(NS(=O)(=O)[C@@H](C)[C@@H](OC(C)C)c3ncc(C)cn3)n1[C@H](CO)CO2 (single isomer, unassigned) [Example 18.0, (1S,2S)-N-((R)-5-(hydroxymethyl)-10-methoxy-5,6-dihydropyrido[2,3-f][1,2,4]triazolo[4,3-d][1,4]oxazepin-3-yl)-1-isopropoxy-1-(5-methylpyrimidin-2-yl)propane-2-sulfonamide or (1S,2S)-N-((S)-5-(hydroxymethyl)-10-methoxy-5,6-dihydropyrido[2,3-f][1,2,4]traizolo[4,3-d][1,4]oxazepin-3-yl)-1-isopropoxy-1-(5-methylpyrimidin-2-yl)propane-2-sulfonamide] | 640
4 | COc1ccc2c(n1)-c1nnc(NS(=O)(=O)[C@@H](C)[C@@H](OC(C)C)c3ncc(C)cn3)n1[C@H](CO)CO2 (single isomer, unassigned) [Example 19.0, (1S,2S)-N-((R)-5-(hydroxymethyl)-10-methoxy-5,6-dihydropyrido[2,3-f][1,2,4]triazolo[4,3-d][1,4]oxazepin-3-yl)-1-isopropoxy-1-(5-methylpyrimidin-2-yl)propane-2-sulfonamide or (1S,2S)-N-((S)-5-(hydroxymethyl)-10-methoxy-5,6-dihydropyrido[2,3-f][1,2,4]triazolo[4,3-d][1,4]oxazepin-3-yl)-1-isopropoxy-1-(5-methylpyrimidin-2-yl)propane-2-sulfonamide] | 990
5 | COC[C@@H]1COc2cc(F)c(F)cc2-c2nnc(NS(=O)(=O)[C@@H](C)[C@@H](OC(C)C)c3ncc(C)cn3)n21 (single isomer, unassigned) [Example 20.0, (1S,2S)-N-((5R)-9,10-difluoro-5-(methoxymethyl)-5,6-dihydro[1,2,4]triazolo[4,3-d][1,4]benzoxazepin-3-yl)-1-(5-methyl-2-pyrimidinyl)-1-(2-propanyloxy)-2-propanesulfonamide or (1S,2S)-N-((5S)-9,10-difluoro-5-(methoxymethyl)-5,6-dihydro[1,2,4]triazolo[4,3-d][1,4]benzoxazepin-3-yl)-1-(5-methyl-2-pyrimidinyl)-1-(2-propanyloxy)-2-propanesulfonamide] | 990
6 | COC[C@@H]1COc2cc(F)c(F)cc2-c2nnc(NS(=O)(=O)[C@@H](C)[C@@H](OC(C)C)c3ncc(C)cn3)n21 (single isomer, unassigned) [Example 21.0, (1S,2S)-N-((5R)-9,10-difluoro-5-(methoxymethyl)-5,6-dihydro[1,2,4]triazolo[4,3-d][1,4]benzoxazepin-3-yl)-1-(5-methyl-2-pyrimidinyl)-1-(2-propanyloxy)-2-propanesulfonamide or (1S,2S)-N-((5S)-9,10-difluoro-5-(methoxymethyl)-5,6-dihydro[1,2,4]triazolo[4,3-d][1,4]benzoxazepin-3-yl)-1-(5-methyl-2-pyrimidinyl)-1-(2-propanyloxy)-2-propanesulfonamide] | 3400
7 | COC[C@@H]1COc2ccc(F)cc2-c2nnc(NS(=O)(=O)[C@@H](C)[C@@H](OC(C)C)c3ncc(C)cn3)n21 (single isomer, unassigned) [Example 25.0, (1S,2S)-N-((5R)-10-fluoro-5-(methoxymethyl)-5,6-dihydro[1,2,4]traizolo[4,3-d][1,4]benzoxazepin-3-yl)-1-(5-methyl-2-pyrimidinyl)-1-(2-propanyloxy)-2-propanesulfonamide or (1S,2S)-N-((5S)-10-fluoro-5-(methoxymethyl)-5,6-dihydro[1,2,4]traizolo[4,3-d][1,4]benzoxazepin-3-yl)-1-(5-methyl-2-pyrimidinyl)-1-(2-propanyloxy)-2-propanesulfonamide] | 28
8 | COC[C@@H]1COc2ccc(F)cc2-c2nnc(NS(=O)(=O)[C@@H](C)[C@@H](OC(C)C)c3ncc(C)cn3)n21 (single isomer, unassigned) [Example 26.0, (1S,2S)-N-((5R)-10-fluoro-5-(methoxymethyl)-5,6-dihydro[1,2,4]triazolo[4,3-d][1,4]benzoxazepin-3-yl)-1-(5-methyl-2-pyrimidinyl)-1-(2-propanyloxy)-2-propanesulfonamide or (1S,2S)-N-((5S)-10-fluoro-5-(methoxymethyl)-5,6-dihydro[1,2,4]triazolo[4,3-d][1,4]benzoxazepin-3-yl)-1-(5-methyl-2-pyrimidinyl)-1-(2-propanyloxy)-2-propanesulfonamide] | 460
9 | COC[C@@H]1COc2ccc(F)cc2-c2nnc(NS(=O)(=O)[C@@H](C)[C@H](OC)c3ncc(C)cn3)n21 (single isomer, unassigned) [Example 27.0, (1R,2S)-N-((5R)-10-fluoro-5-(methoxymethyl)-5,6-dihydro[1,2,4]triazolo[4,3-d][1,4]benzoxazepin-3-yl)-1-methoxy-1-(5-methyl-2-pyrimidinyl)-2-propanesulfonamide or (1R,2S)-N-((5S)-10-fluoro-5-(methoxymethyl)-5,6-dihydro[1,2,4]triazolo[4,3-d][1,4]benzoxazepin-3-yl)-1-methoxy-1-(5-methyl-2-pyrimidinyl)-2-propanesulfonamide] | 490
10 | COC[C@@H]1COc2ccc(F)cc2-c2nnc(NS(=O)(=O)[C@@H](C)[C@H](OC)c3ncc(C)cn3)n21 (single isomer, unassigned) [Example 28.0, (1R,2S)-N-((5R)-10-fluoro-5-(methoxymethyl)-5,6-dihydro[1,2,4]triazolo[4,3-d][1,4]benzoxazepin-3-yl)-1-methoxy-1-(5-methyl-2-pyrimidinyl)-2-propanesulfonamide or (1R,2S)-N-((5S)-10-fluoro-5-(methoxymethyl)-5,6-dihydro[1,2,4]triazolo[4,3-d][1,4]benzoxazepin-3-yl)-1-methoxy-1-(5-methyl-2-pyrimidinyl)-2-propanesulfonamide] | 170
11 | COC[C@@H]1COc2ncccc2-c2nnc(NS(=O)(=O)CCc3ncc(C)cn3)n21 (single isomer, unassigned) [Example 34.0, N-((5R)-5-(methoxymethyl)-5,6-dihydropyrido[3,2-f][1,2,4]triazolo[4,3-d][1,4]oxazepin-3-yl)-2-(5-methyl-2-pyrimidinyl)ethanesulfonamide or N-((5S)-5-(methoxymethyl)-5,6-dihydropyrido[3,2-f][1,2,4]triazolo[4,3-d][1,4]oxazepin-3-yl)-2-(5-methyl-2-pyrimidinyl)ethanesulfonamide] | 180
12 | COC[C@@H]1COc2c(OC)cccc2-c2nnc(NS(=O)(=O)[C@@H](C)[C@@H](OC(C)C)c3ncc(C)cn3)n21 (single isomer, unassigned) [Example 38.0, (1S,2S)-N-((5R)-8-methoxy-5-(methoxymethyl)-5,6-dihydro[1,2,4]traizolo[4,3-d][1,4]benzoxazepin-3-yl)-1-(5-methyl-2-pyrimidinyl)-1-(2-propanyloxy)-2-propanesulfonamide or (1S,2S)-N-((5S)-8-methoxy-5-(methoxymethyl)-5,6-dihydro[1,2,4]triazolo[4,3-d][1,4]benzoxazepin-3-yl)-1-(5-methyl-2-pyrimidinyl)-1-(2-propanyloxy)-2-propanesulfonamide] | 64
13 | COC[C@@H]1COc2c(OC)cccc2-c2nnc(NS(=O)(=O)[C@@H](C)[C@@H](OC(C)C)c3ncc(C)cn3)n21 (single isomer, unassigned) [Example 39.0, (1S,2S)-N-((5R)-8-methoxy-5-(methoxymethyl)-5,6-dihydro[1,2,4]traizolo[4,3-d][1,4]benzoxazepin-3-yl)-1-(5-methyl-2-pyrimidinyl)-1-(2-propanyloxy)-2-propanesulfonamide or (1S,2S)-N-((5S)-8-methoxy-5-(methoxymethyl)-5,6-dihydro[1,2,4]traizolo[4,3-d][1,4]benzoxazepin-3-yl)-1-(5-methyl-2-pyrimidinyl)-1-(2-propanyloxy)-2-propanesulfonamide] | 8
14 | COC[C@@H]1COc2ncccc2-c2nnc(NS(=O)(=O)[C@@H](C)[C@@H](OC(C)C)c3ncc(C)cn3)n21 (single isomer, unassigned) [Example 40.0] | 86
